# According to patent US20260191968A1, “PROTAC DEGRADERS OF MLLT1 AND/OR MLLT3” (DARK BLUE THERAPEUTICS LTD, priority 2024, published 2026):
# Experiments:
# MV4-11 cells = test: MV4-11 cellular proliferative assay, Assay Format B (CTG 2.0, 168 h); format: cell-based; details: Homo sapiens, 168 h (7 days), CTG 2.0, read-out: IC50 (MV4-11 cellular proliferative assay, Assay format B)
# In short: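 Viability read by CellTiter-Glo 2.0 luminescence after 7-day (168 h) compound exposure of MV4-11 cells in IMDM/10% FBS. Ten 3-fold concentrations starting at 1 uM or 100 nM, 0.3% final DMSO; curves normalised to DMSO control, four-parameter fit.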
# MLLT1 = molecular target: T1, MLLT1 (Homo sapiens, UniProt Q03111); test: MLLT1 degradation assay in MV4-11 cells (JESS chemiluminescent detection), three concentrations, 24 h; format: cell-based; details: with respect to DMSO control
# T1 construct: host or cells: MV4-11
# T1 sequence (Q03111 1-559): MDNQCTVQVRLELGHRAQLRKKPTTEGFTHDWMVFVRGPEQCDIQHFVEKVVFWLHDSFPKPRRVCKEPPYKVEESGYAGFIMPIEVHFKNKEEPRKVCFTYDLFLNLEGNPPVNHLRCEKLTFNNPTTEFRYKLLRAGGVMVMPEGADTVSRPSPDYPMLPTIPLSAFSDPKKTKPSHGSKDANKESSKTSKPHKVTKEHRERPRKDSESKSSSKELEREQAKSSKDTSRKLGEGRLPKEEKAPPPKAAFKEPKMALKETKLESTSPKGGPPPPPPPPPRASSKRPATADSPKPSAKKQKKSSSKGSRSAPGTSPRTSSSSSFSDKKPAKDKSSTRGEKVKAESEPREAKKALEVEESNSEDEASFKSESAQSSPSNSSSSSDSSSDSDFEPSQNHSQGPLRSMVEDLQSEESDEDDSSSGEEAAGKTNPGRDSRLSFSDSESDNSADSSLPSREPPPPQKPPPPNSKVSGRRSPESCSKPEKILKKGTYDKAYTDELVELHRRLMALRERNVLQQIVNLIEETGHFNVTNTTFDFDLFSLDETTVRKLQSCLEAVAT
# In short: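 Read-out is % MLLT1 degradation versus DMSO, from band peak areas on a JESS chemiluminescent system. Cells (MV4-11) were exposed for 24 h at 37° C to three compound levels, 10, 100 and 1000 nM, in 0.1% DMSO.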
Structure (SMILES),IC50 (MV4-11 cells),MLLT1% Degradation @ 0.01 μM (MLLT1),MLLT1% Degradation @ 0.1 μM (MLLT1),MLLT1% Degradation @ 1 μM (MLLT1)
"CN1CCC[C@@H]1c1cc2cnc(NC(=O)c3ccc(OCC#Cc4cccc5c4CN(C4CCC(=O)NC4=O)C5=O)nc3)cc2[nH]1 (stereo partly drawn) [Example 2, 6-((3-(2-(2,6-dioxopiperidin-3-yl)-1-oxoisoindolin-4-yl)prop-2-yn-1-yl)oxy)-N-(2-((R)-1-methylpyrrolidin-2-yl)-1H-pyrrolo[3,2-c]pyridin-6-yl)nicotinamide]",≤ 0.1 µM,A (Category A: A ≥ 75% degradation),A (Category A: A ≥ 75% degradation),A (Category A: A ≥ 75% degradation)
"CN1CCC[C@@H]1c1cc2cnc(NC(=O)c3ccc(N4CCN(CC#Cc5cccc6c5CN(C5CCC(=O)NC5=O)C6=O)CC4)nc3)cc2[nH]1 (stereo partly drawn) [Example 6, 6-(4-(3-(2-(2,6-dioxopiperidin-3-yl)-1-oxoisoindolin-4-yl)prop-2-yn-1-yl)piperazin-1-yl)-N-(2-((R)-1-methylpyrrolidin-2-yl)-1H-pyrrolo[3,2-c]pyridin-6-yl)nicotinamide]",≤ 0.1 µM,A (Category A: A ≥ 75% degradation),A (Category A: A ≥ 75% degradation),B (Category B: 50% ≤ B < 75% degradation)
"CN1CCC[C@@H]1c1cc2cnc(NC(=O)c3ccc(CCCC#Cc4cccc5c4CN(C4CCC(=O)NC4=O)C5=O)nc3)cc2[nH]1 (stereo partly drawn) [Example 12, 6-(5-(2-(2,6-dioxopiperidin-3-yl)-1-oxoisoindolin-4-yl)pent-4-yn-1-yl)-N-(2-((R)-1-methylpyrrolidin-2-yl)-1H-pyrrolo[3,2-c]pyridin-6-yl)nicotinamide]",≤ 0.1 µM,B (Category B: 50% ≤ B < 75% degradation),A (Category A: A ≥ 75% degradation),A (Category A: A ≥ 75% degradation)
"CN1CCC[C@@H]1c1[nH]c2cc(NC(=O)CCCCCCC#Cc3cccc4c3CN(C3CCC(=O)NC3=O)C4=O)ncc2c1Cl (stereo partly drawn) [Example 13, N-(3-chloro-2-((R)-1-methylpyrrolidin-2-yl)-1H-pyrrolo[3,2-c]pyridin-6-yl)-9-(2-(2,6-dioxopiperidin-3-yl)-1-oxoisoindolin-4-yl) non-8-ynamide]",≤ 0.1 µM,A (Category A: A ≥ 75% degradation),A (Category A: A ≥ 75% degradation),A (Category A: A ≥ 75% degradation)
"CN1CCC[C@@H]1c1cc2cnc(NC(=O)c3cccc(C4CCN(c5cccc6c5C(=O)N(C5CCC(=O)NC5=O)C6=O)CC4)c3)cc2[nH]1 (stereo partly drawn) [Example 14, 3-(1-(2-(2,6-dioxopiperidin-3-yl)-1,3-dioxoisoindolin-4-yl)piperidin-4-yl)-N-(2-((R)-1-methylpyrrolidin-2-yl)-1H-pyrrolo[3,2-c]pyridin-6-yl)benzamide]",≤ 0.1 µM,B (Category B: 50% ≤ B < 75% degradation),A (Category A: A ≥ 75% degradation),A (Category A: A ≥ 75% degradation)
"CN1CCC[C@@H]1c1cc2cnc(NC(=O)c3ccc(N4CCC(CC#Cc5cccc6c5CN(C5CCC(=O)NC5=O)C6=O)CC4)nc3)cc2[nH]1 (stereo partly drawn) [Example 16, 6-(4-(3-(2-(2,6-dioxopiperidin-3-yl)-1-oxoisoindolin-4-yl)prop-2-yn-1-yl)piperidin-1-yl)-N-(2-((R)-1-methylpyrrolidin-2-yl)-1H-pyrrolo[3,2-c]pyridin-6-yl)nicotinamide]",≤ 0.1 µM,A (Category A: A ≥ 75% degradation),A (Category A: A ≥ 75% degradation),B (Category B: 50% ≤ B < 75% degradation)
"CN1CCC[C@@H]1c1cc2cnc(NC(=O)c3ccc(N4CCC(C#Cc5cccc6c5CN(C5CCC(=O)NC5=O)C6=O)CC4)nc3)cc2[nH]1 (stereo partly drawn) [Example 17, 6-(4-((2-(2,6-dioxopiperidin-3-yl)-1-oxoisoindolin-4-yl)ethynyl)piperidin-1-yl)-N-(2-((R)-1-methylpyrrolidin-2-yl)-1H-pyrrolo[3,2-c]pyridin-6-yl)nicotinamide]",≤ 0.1 µM,A (Category A: A ≥ 75% degradation),A (Category A: A ≥ 75% degradation),A (Category A: A ≥ 75% degradation)
"CN1CCC[C@@H]1c1cc2cnc(NC(=O)c3ccc(-c4cnn(CCCCC#Cc5cccc6c5CN(C5CCC(=O)NC5=O)C6=O)c4)cc3)cc2[nH]1 (stereo partly drawn) [Example 59, 4-(1-(6-(2-(2,6-dioxopiperidin-3-yl)-1-oxoisoindolin-4-yl)hex-5-yn-1-yl)-1H-pyrazol-4-yl)-N-(2-((R)-1-methylpyrrolidin-2-yl)-1H-pyrrolo[3,2-c]pyridin-6-yl)benzamide]",≤ 0.1 µM,A (Category A: A ≥ 75% degradation),A (Category A: A ≥ 75% degradation),B (Category B: 50% ≤ B < 75% degradation)
"CN1CCC[C@@H]1c1cc2cnc(NC(=O)c3ccc(-c4cnn(CCCC5CCN(c6cccc(C(=O)N[C@H]7CCC(=O)NC7=O)n6)CC5)c4)cc3)cc2[nH]1 [Example 60, N—((S)-2,6-dioxopiperidin-3-yl)-6-(4-(3-(4-(4-((2-((R)-1-methylpyrrolidin-2-yl)-1H-pyrrolo[3,2-c]pyridin-6-yl)carbamoyl)phenyl)-1H-pyrazol-1-yl)propyl)piperidin-1-yl)picolinamide]",≤ 0.1 µM,A (Category A: A ≥ 75% degradation),A (Category A: A ≥ 75% degradation),A (Category A: A ≥ 75% degradation)
"CN1CCC[C@@H]1c1cc2cnc(NC(=O)c3ccc(-c4cnn(CCOC5CCN(c6cccc(C(=O)N[C@H]7CCC(=O)NC7=O)n6)CC5)c4)cc3)cc2[nH]1 [Example 61, N—((S)-2,6-dioxopiperidin-3-yl)-6-(4-(2-(4-(4-((2-((R)-1-methylpyrrolidin-2-yl)-1H-pyrrolo[3,2-c]pyridin-6-yl)carbamoyl)phenyl)-1H-pyrazol-1-yl)ethoxy)piperidin-1-yl)picolinamide]",≤ 0.1 µM,A (Category A: A ≥ 75% degradation),A (Category A: A ≥ 75% degradation),B (Category B: 50% ≤ B < 75% degradation)

# Now from value to compound:
IC50 (MV4-11 cells),MLLT1% Degradation @ 0.01 μM (MLLT1),MLLT1% Degradation @ 0.1 μM (MLLT1),MLLT1% Degradation @ 1 μM (MLLT1),Structure (SMILES)
≤ 0.1 µM,A (Category A: A ≥ 75% degradation),A (Category A: A ≥ 75% degradation),A (Category A: A ≥ 75% degradation),"CN1CCC[C@@H]1c1cc2cnc(NC(=O)c3ccc(CCCCC#Cc4cccc(C(=O)N[C@H]5CCC(=O)NC5=O)n4)cc3)cc2[nH]1 [Example 7, N—((S)-2,6-dioxopiperidin-3-yl)-6-(6-(4-((2-((R)-1-methylpyrrolidin-2-yl)-1H-pyrrolo[3,2-c]pyridin-6-yl)carbamoyl)phenyl)hex-1-yn-1-yl)picolinamide]"
≤ 0.1 µM,A (Category A: A ≥ 75% degradation),A (Category A: A ≥ 75% degradation),A (Category A: A ≥ 75% degradation),"CN1CCC[C@@H]1c1cc2cnc(NC(=O)c3ccc(CCCCC#Cc4cccc(N5CCC(=O)NC5=O)n4)cc3)cc2[nH]1 [Example 9, (R)-4-(6-(6-(2,4-dioxotetrahydropyrimidin-1(2H)-yl)pyridin-2-yl)hex-5-yn-1-yl)-N-(2-(1-methylpyrrolidin-2-yl)-1H-pyrrolo[3,2-c]pyridin-6-yl)benzamide]"
